“Also recorded” adds a separate entry of the source.
What was measured:
Xenopus oocytes [1] = assay: Xenopus oocyte bioassay: progesterone-induced oocyte maturation (GVBD); assay type: cell-based
Method: (§1) Oocyte maturation was monitored at regular intervals using a high content image capture procedure. Immature stage VI Xenopus oocytes were transferred to wells of a flat bottom 96-well plate containing about 178 μL of L15 culture media. The oocytes were transferred using wide mouth 200 μL pipette tips with minimal transfer of culture medium (e.g., about 20 μL). Generally, the oocytes oriented with the dark-pigmented animal hemisphere facing up due to the higher density of the yolk-containing vegetal hemisphere. Incorrectly orientated oocytes were gently manipulated using a drawn-out capillary tube or other tool to rotate them into the correct orientation. […] The oocytes were incubated for about 16 hours (i.e., overnight) at 16-25° C. in the presence of 1% DMSO (i.e., 2 μL of 100% DMSO).
Oocyte maturation was stimulated by the addition of progesterone. For this, 2 μL of 1000× stock solution (2 mg/mL in ethanol) was added to the appropriate wells to yield a final concentration of 2 μg/mL (although other concentrations of progesterone may be employed). The 96-well plate was imaged from the top-down (see FIG. 4E) using a 36-megapixel Nikon D800 SLR camera with an AF Micro Nikkor 60 mm, f/2.8 lens, mounted on a dedicated copy stand (with adjustable flanking light sources).
The plate was imaged prior to and after addition of progesterone (i.e., images were taken at regular intervals over a period of 7 hours). Oocyte maturation was phenotypically assessed by the appearance of a white spot at the animal pole of the oocyte. The white spot is due to migration of the germinal vesicle towards the animal pole prior to germinal vesicle breakdown (GVBD). The high resolution images were digitally zoomed after capture to analyze the maturation status of oocytes in individual wells of the plate (FIGS. 4A-D).
The Xenopus oocyte bioassay was used to screen a collection of about 2000 low molecular weight small molecules. Oocytes were distributed among multi-well plates essentially as described above in Example 1. The test compounds were dissolved in DMSO to make 100× stock solutions. The test compounds were added to the appropriate wells at a final concentration of 100 μM (and 1% DMSO). No drug control oocytes were exposed to 1% DMSO only. Sixteen hours later, progesterone was added to the appropriate wells, with the first and last wells of each plate containing the no drug control oocytes. The rate of maturation in the first and last wells served as an intra-assay control for time taken for progesterone addition across each multiwell plate. The plates were imaged essentially as described above in Example 1.

Xenopus oocytes [2] = assay: Xenopus oocyte bioassay: oocyte maturation (GVBD) in the absence of progesterone; assay type: cell-based; conditions: for activation of GVBD: no progesterone (FIG. 6)
MAP kinase (MAPK) = assay: Western blot of treated oocytes, MAP kinase phosphorylation; assay type: cell-based, Xenopus
Excerpt: (§2) To begin to decipher the mechanism of action of the compounds that modified oocyte maturation, their effects on regulators of the meiotic cell cycle were examined. In particular, Musashi (Msi1) phosphorylation, Msi2 phosphorylation, MAP kinase phosphorylation, and Cdc2 (also called CDK1) dephosphorylation were examined in Xenopus oocytes treated with a modifying compound or only DMSO (i.e., control). The oocytes were processed for Western blot analysis using standard procedures, and the blots were probed with antibodies specific for phosphorylated or non-phosphorylated forms of the proteins of interest.

Xenopus oocytes [3] = assay: Xenopus oocyte bioassay: oocyte maturation (GVBD) in the absence of progesterone; assay type: cell-based; conditions: screen at 100 μM
Method: as §1
Oocyte maturation was stimulated by the addition of progesterone. For this, 2 μL of 1000× stock solution (2 mg/mL in ethanol) was added to the appropriate wells to yield a final concentration of 2 μg/mL (although other concentrations of progesterone may be employed). […]
The plate was imaged prior to and after addition of progesterone (i.e., images were taken at regular intervals over a period of 7 hours). Oocyte maturation was phenotypically assessed by the appearance of a white spot at the animal pole of the oocyte. […]

Cdc2 (also called CDK1) = assay: Western blot of treated oocytes, Cdc2 (CDK1) dephosphorylation / MPF activation; assay type: cell-based, Xenopus; conditions: for dephosphorylation of cdc2 (CDK1), activation of MPF: activators, no progesterone, PNR-5-46 5 μM, JVM-9 100 μM (FIG. 8A)
Excerpt: as §2

MDA MB231 cells = assay: Mammosphere formation (breast cancer stem cell self-renewal), MDA MB231; assay type: cell-based; conditions: compound first 3 days, scored day 14 (P2), 50, 5 and 0.5 μM
Excerpt: (§3) Mammosphere culture growth presents a useful indicator of the presence of breast cancer cells with stem cell-like properties. Breast cancer cell lines grown as mammospheres (under non-adherent plating conditions) recapitulate the three-dimensional organization of tumors. Importantly, assessment of stem cell self-renewal capacity can be achieved through dispersion of mammospheres to single cells and subsequent limited dilution replating. […] At day 7, mammospheres were collected, dispersed to single cells and replated at limiting dilution (P1). Spheroids were scored at day 14 (P2). Mammosphere forming units (MFUs) are defined as spheroid bodies >100 μm (MCF-7 cells) or >65 μm (MDA MB231 cells) diameter after 7 (P1) or 14 (P2) days growth in non-adherent culture.

Musashi1 (Msi1) = assay: Western blot of treated oocytes, Msi1 phosphorylation; assay type: cell-based, Xenopus
Excerpt: as §2

U87 = assay: Neurosphere formation, glioblastoma cell line U87; assay type: cell-based; conditions: lowest dose tested 0.5 μM (FIG. 11B)
Method: (§4) The activity of the three test compounds to inhibit neurosphere formation was also tested in a neuroblastoma cell line SHSY5Y and a glioblastomoa cell line U87. All three compounds attenuated neurosphere formation in both cell lines, to varying degrees of efficacy (FIGS. 11A,B). […] None of the compounds affected cell viability.

MCF-7 cells = assay: Mammosphere formation (breast cancer stem cell self-renewal), MCF-7; assay type: cell-based; conditions: compound first 3 days, scored day 14 (P2), 50, 5 and 0.5 μM
Excerpt: as §3

SHSY5Y = assay: Neurosphere formation, neuroblastoma cell line SHSY5Y; assay type: cell-based; conditions: lowest dose tested 0.5 μM (FIG. 11A)
Method: as §4

Musashi2 (Msi2) = assay: Western blot of treated oocytes, Msi2 phosphorylation; assay type: cell-based, Xenopus; conditions: FIG. 8B
Excerpt: as §2

MCF-7 or MDA MB231 cells = assay: General cell viability of breast cancer cells; assay type: cell-based; conditions: 0.5 μM dose
[4] = activators, no progesterone, PNR-5-46 5 μM, JVM-9 100 μM (FIG. 8A)
[5] = in response to progesterone (FIG. 9)

Structure (SMILES): CC(=O)[C@H]1CC[C@H]2[C@@H]3CCC4=CC(=O)CC[C@]4(C)[C@H]3CC[C@]12C [progesterone, reference compound]
- percent of oocytes that started GVBD (Xenopus oocytes [1]; by about 7 hours, progesterone-treated oocytes (FIG. 5)): About 35%

Structure (SMILES): C/C1=C\CC[C@@]2(C)O[C@H]2[C@H]2OC(=O)[C@@H](CNc3nc4ccccc4[nH]3)[C@@H]2CC1 [JVM-9]
- activation of GVBD (Xenopus oocytes [2]; 10 μM): less effective
- activation of GVBD (Xenopus oocytes [2]; 100 and 50 μM): activated GVBD
- phosphorylation of MAP kinase (MAP kinase (MAPK); [4]): promoted phosphorylation
- progesterone-independent oocyte maturation (activator) (Xenopus oocytes [3]): activation of maturation; also recorded: activators; also recorded: activated spontaneous oocyte maturation
- dephosphorylation of cdc2 (CDK1), activation of MPF (Cdc2 (also called CDK1)): dephosphorylation of cdc2

Structure (SMILES): C/C1=C\CC[C@@]2(C)O[C@H]2[C@H]2OC(=O)/C(=C\c3ccc(N)cc3)[C@@H]2CC1 [PNR-5-41]
- mammosphere formation relative to DMSO-treated control cells (MDA MB231 cells): did not
- phosphorylation of Msi1 (Musashi1 (Msi1); [5]): did not affect phosphorylation
- phosphorylation of MAP kinase (MAP kinase (MAPK); [5]): did not affect phosphorylation
- neurosphere formation / stem cell self-renewal (U87): Significant inhibition
- mammosphere formation relative to DMSO-treated control cells (MCF-7 cells): did not
- neurosphere formation / stem cell self-renewal (SHSY5Y): Significant inhibition
- de-phosphorylation and activation of cyclin B/CDK1 (MPF) (Cdc2 (also called CDK1); [5]): blocked
- EC50 (Xenopus oocytes [1]; Xenopus laevis, Oocyte, progesterone-induced, p<0.05, n=5 vs DMSO only, read-out: EC50 (inhibition of progesterone-induced maturation)): 5 µM
- effect on rate of progesterone-induced oocyte maturation (inhibitor) (Xenopus oocytes [1]; progesterone-induced): attenuation of progesterone-induced GVBD; also recorded: inhibitor; also recorded: inhibited progesterone-induced maturation in a dose-dependent manner

Structure (SMILES): C/C1=C\CC[C@@]2(C)O[C@H]2[C@H]2OC(=O)/C(=C\c3cccc(Br)c3)[C@@H]2CC1 [PNR-5-46]
- mammosphere formation relative to DMSO-treated control cells (MDA MB231 cells): effectively inhibited
- EC50 (Xenopus oocytes [2]; Xenopus laevis, Oocyte, absence of progesterone, read-out: EC50 (activation of oocyte maturation)): 7 µM
- percent of oocytes that initiated GVBD (Xenopus oocytes [2]; by about 4 hours, no progesterone, 100 μM PNR-5-46 (FIG. 5)): About 35%
- activation (phosphorylation) of Msi1 (Musashi1 (Msi1); not shown): triggered activation
- phosphorylation of MAP kinase (MAP kinase (MAPK); [4]): promoted phosphorylation
- neurosphere formation / stem cell self-renewal (U87): not
- activation (phosphorylation) of Msi2 (Musashi2 (Msi2)): triggered activation
- progesterone-independent oocyte maturation (activator) (Xenopus oocytes [3]): hormone-independent activation of maturation; also recorded: activators; also recorded: induced oocyte maturation
- mammosphere formation relative to DMSO-treated control cells (MCF-7 cells): effectively inhibited
- neurosphere formation / stem cell self-renewal (SHSY5Y): not
- dephosphorylation of cdc2 (CDK1), activation of MPF (Cdc2 (also called CDK1)): dephosphorylation of cdc2
- general cell viability (MCF-7 or MDA MB231 cells): no significant effect

Structure (SMILES): C/C1=C\CC[C@@]2(C)O[C@H]2[C@H]2OC(=O)[C@@H](CNCCCn3ccnc3)[C@@H]2CC1 [JVM-20]
- mammosphere formation relative to DMSO-treated control cells (MDA MB231 cells): effectively inhibited
- neurosphere formation / stem cell self-renewal (U87): particularly effective
- mammosphere formation relative to DMSO-treated control cells (MCF-7 cells): effectively inhibited
- neurosphere formation / stem cell self-renewal (SHSY5Y): particularly effective
- general cell viability (MCF-7 or MDA MB231 cells): no significant effect
- effect on progesterone-stimulated maturation (Xenopus oocytes [1]; from 1 to 50 μM): accelerate
- effect on progesterone-stimulated maturation (Xenopus oocytes [1]; high dose (100 μM)): inhibit
